Legend:
WT and A53T mice = assay: In vivo fecal pellet output test; set-up: species or system mouse; settings: for FPO in the first 15 min: Day 5 vs Day 0
Method: In vivo fecal pellet output: Mice were subjected to the FPO test 1 day prior to the start of dosing with squalamine or vehicle (sterile water) (day 0). Mice were fasted for one hour and then given access to food one hour before FPO testing. On days 1-5 mice were fasted for one hour prior to oral gavage with vehicle or 20, 40, 80, or 120mg/kg squalamine. Oral gavage occurred between 10:00 to 11:00 am daily. On day 5, the FPO test was performed 1 hour after the final dose was administered. Total number of stool pellets produced in the first 15 min and over a 60 min period was measured in each group. Stool water content was measured by comparing wet and dry weights of the stool.

[1] = tested on: colon segments (propagating contractile clusters); assay: Ex vivo colon motility (PCCs), Swiss Webster, C57BL/6 and CD-1 mice; set-up: species or system mouse; settings: for increase in colonic PCC velocity / colonic PCC velocity: intraluminal 10-30 μM; for colonic PCC velocity: mean±SEM
Method: Ex vivo colon motility: For the ex vivo colonic motility experiments, the colon was excised and placed within an organ-bath perfusion chamber filled with warmed, oxygenated Krebs buffer or physiological saline (35° C., 95% O2, 5% CO2). The colon was flushed and cannulated at the oral and anal ends to a manifold and syringe to allow inflow of oxygenated Krebs buffer (or physiological saline) or Krebs and squalamine and to maintain intraluminal pressure. The height of the inflow tube at baseline measurements was parallel to the height of the colon in the organ bath (1.1 cm). Mechanical threshold defined an inflow pressure great enough to generate a contraction in under 30 sec (1.8 cm). Recordings in the first portion of the study were measured at a mechanical threshold causing a pressure differential of 2 hPa (cm H2O). Inflow was raised 2-3 hPa above baseline and outflow was raised a minimum of 0.2 hPa above inflow. Motor patterns were recorded using a Microsoft LifeCam 3000 web camera or a Logitech Quickcam Pro camera positioned 7-8 cm above the tissue. Videos were recorded during a 20-minute Krebs control and a 20-minute Krebs +squalamine period in which solutions were added to the inflow syringe.
Spatiotemporal Maps: Video recordings were used to construct spatiotemporal maps (STmaps) using edge detection software. STmaps are presented as heat maps showing the oral to anal direction across the y-axis and time across the x-axis (FIGS. 9A-C). Color corresponds to the changing diameter of the colon during periods of relaxation (green-yellow) and contraction (red) as contractile motor patterns occurred. ENS-dependent PCCs were defined as broad bands directed from the oral to anal ends that spanned more than 50% of the colon length. Parameters of motor patterns including, velocity, amplitude, and frequency were measured using ImageJ and Matlab (Version 12) software.
Statistical Analysis: Effects of squalamine on motility and IPAN excitability in WT and PD model mice were assessed in paired experiments following Krebs control and subsequent squalamine exposure. Unpaired comparisons were performed for experiments comparing PD control and PD model strains. Percent difference was calculated by (treatment-control)/control. Data are presented as mean±SEM. Ex vivo statistical comparisons were performed using paired or unpaired, two-tailed t-tests or 1-way ANOVA using Graphpad Prism software (Version 7.0). In vivo studies were analysed using 1-way and 2-way ANOVA. Statistical significance was determined when p <0.05.

C. elegans model of PD = settings: cited from earlier work
[2] = tested on: colon segments (propagating contractile clusters); assay: Ex vivo colon motility, A53T human α-synuclein overexpressing mice and WT littermates; set-up: species or system mouse
[3] = Preclinical oral studies in dogs; type: in vivo
[4] = tested on: patients with PD and constipation; assay: Phase 2 trial: circadian rhythm of wrist skin temperature; type: in vivo, human; settings: fixed dose vs baseline, 12 patients
Method: Assessments were made at baseline and at the end of the fixed dose and washout periods. Circadian system status was evaluated by continuously monitoring wrist skin temperature (Thermochron iButton DS1921H; Maxim, Dallas) following published procedures (Sarabia et al. 2008).
Circadian rhythm of skin temperature was evaluable in 12 patients (i.e., those who had recordings that extended from baseline through washout). Circadian system functionality was evaluated by continuously monitoring wrist skin temperature using a temperature sensor (Thermochron iButton DS1921H; Maxim, Dallas, TX) (Sarabia et al. 2008). A nonparametric analysis was performed for each participant to characterize DST as previously described (Sarabia et al. 2008; Ortiz-Tudela et al. 2010).
Briefly, this analysis includes the following parameters: (i) the inter-daily stability (the constancy of 24-hour rhythmic pattern over days, IS); (ii) intra-daily variability (rhythm fragmentation, IV); (iii) average of 10-minute intervals for the 10 hours with the minimum temperature (L10); (iv) average of 10-minute intervals for the 5 hours with the maximum temperature (M5) and the relative amplitude (RA), which was determined by the difference between M5 and L10, divided by the sum of both. Finally, the Circadian Function Index (CFI) was calculated by integrating IS, IV, and RA. Consequently, CFI is a global measure that oscillates between 0 for the absence of circadian rhythmicity and 1 for a robust circadian rhythm (Ortiz-Tudela et al. 2010).

[5] = C57BL/6 mice, vs Krebs control (P=0.27)

In the case of CC(C)[C@@H](CC[C@@H](C)[C@H]1CC[C@H]2[C@@H]3[C@H](O)C[C@H]4C[C@@H](NCCCNCCCCN)CC[C@]4(C)[C@H]3CC[C@]12C)OS(=O)(=O)O (single isomer, unassigned) [squalamine (ENT-01), squalamine], the “FPO in the first 15 min” value (WT and A53T mice; A53T mice, 20, 40 and 80 mg/kg oral gavage for 5 days) is reported as “significantly increased”, the fecal water content (WT and A53T mice; A53T mice, 80 and 120 mg/kg oral) is reported as “significantly increased” and the fecal water content (WT and A53T mice; WT mice, 80 mg/kg oral) is reported as “significantly increased”. The “FPO in the first 15 min” value (WT and A53T mice; WT mice, 40 and 120 mg/kg oral gavage for 5 days) was “significantly increased”, the “increase in colonic PCC velocity” value ([1]; C57BL/6 mice, vs Krebs control) was 38% and the “colonic PCC velocity” value ([1]; C57BL/6 mice, Krebs control 1.31±0.10) was 1.80±0.20 mm/s. For the same molecule, the “increase in PCC amplitude” value [1, 5] was 1%, the “increase in PCC frequency” value [1, 5] was 51% and the PCC frequency ([1]; C57BL/6 mice, Krebs control 0.007±0.001) was 0.010 ±0.003 Hz. For the same molecule, the PCC amplitude ([1]; C57BL/6 mice, Krebs control 0.66±0.06) was 0.70±0.07 cm, the “increase in colonic PCC velocity” value ([1]; CD-1 mice, vs Krebs control) was 81% and the “colonic PCC velocity” value ([1]; CD-1 mice, Krebs control 0.96±0.1) was 1.74±0.1 mm/s. For the same molecule, the “increase in PCC frequency” value ([1]; CD-1 mice, vs Krebs control (P=0.06)) was 63%, the “increase in PCC amplitude” value ([1]; CD-1 mice, vs Krebs control (P=0.56)) was 12% and the PCC frequency ([1]; CD-1 mice, Krebs control 0.0099±0.0014) was 0.0162±0.0026 Hz. For the same molecule, the PCC amplitude ([1]; CD-1 mice, Krebs control 0.64±0.19) was 0.71±0.19 cm, the “increase in colonic PCC velocity” value ([1]; Swiss Webster mice, 20 min, vs Krebs control) was 45% and the “colonic PCC velocity” value ([1]; Swiss Webster mice, Krebs control 1.14±0.10) was 1.66±0.10 mm/s. The “increase in PCC frequency” value ([1]; Swiss Webster mice, vs Krebs control) was 35%, the “decrease in PCC amplitude” value ([1]; Swiss Webster mice, vs Krebs control (P=0.65)) was 3% and the PCC frequency ([1]; Swiss Webster mice, Krebs control 0.009±0.001) was 0.012±0.001 Hz. For the same molecule, the PCC amplitude ([1]; Swiss Webster mice, Krebs control 0.62±0.05) was 0.61±0.05 cm, the muscle paralysis (C. elegans model of PD; C. elegans model of PD (Perni et al. 2017)) was “complete reversal of muscle paralysis” and the “formation of aggregates of αS” value (C. elegans model of PD; C. elegans model of PD in vivo (Perni et al. 2017)) was “inhibit the formation of aggregates of αS”. It also gave a PCC velocity ([2]; A53T mice, baseline state, intraluminal 30 μM, without drug 1.2±0.2) of 2.3±0.4 mm/s, a PCC velocity ([2]; A53T mice, colonic expansion (mechanical threshold), 30 μM, without drug 1.6±0.3) of 2.1±0.3 mm/s and a PCC velocity ([2]; WT mice, baseline state, intraluminal 30 μM, without drug 1.7±0.3) of 2.8±0.4 mm/s. For the same molecule, the PCC velocity ([2]; WT mice, colonic expansion (mechanical threshold), 30 μM, without drug 3.0±0.7) was 2.4±0.3 mm/s, the tolerability [3] was “well tolerated” and the “relative amplitude (RA)” value ([4]; p=0.001) was “increasing”. For the same molecule, the “circadian function index (CFI)” value ([4]; p=0.016) was “increasing”, the “rhythm stability (IS)” value ([4]; p=0.026) was “increasing” and the “rhythm fragmentation (IV)” value ([4]; p=0.031) was “reducing”.
